Test results: patent publication US8324189B2, “Use of zolendronate for the manufacture of a medicament for the treatment of bone metabolism diseases” (Novartis Pharmaceuticals Corporation, priority 2001, dated 2012)

Columns and labels:
[1] = renal adverse events (increase in serum creatinine over baseline) in clinical studies; format: in vivo, human
[2] = controlled trials in cancer patients: percentage of patients showing a skeletal related adverse event; format: in vivo, human
Experimental: The 4 mg dose of zoledronic acid has been determined to be clinically effective in several controlled trials in cancer patients, with placebo or the bisphosphonate pamidronate as comparator.

[3] = pharmacokinetic study of zoledronic acid in cancer patients with bone metastases (plasma concentration, urinary excretion); format: in vivo, human; settings: for Cmax: human, plasma, intravenous
Experimental: FIG. 1. Plasma concentrations in patients after 4 mg zoledronic acid infused over 5 minutes and 15 minutes (mean data for n=5 patients in 4 mg/5 min group, n=7 patients in 4 mg/15 min group, study 503 [2]
• 1. The volume of 100 ml containing 4 mg zoledronic acid is infused over 15 minutes as an intravenous drip, which allows the drug to be administered at a uniform and precise rate. […] The pharmacokinetic parameters derived from the individual patients' plasma concentration versus time curves, and urinary excretion of drug are tabulated below.

[4] = system: prostate cancer cell lines; settings: in vitro treatment; cited from earlier work
[5] = renal adverse events (increase in serum creatinine over baseline) in clinical studies; format: in vivo, human; settings: for incidence of renal adverse events / incidence of renal adverse events (patients with event / patients): 4 mg
Experimental: The dose of 4 mg zoledronic acid infused over 15 minutes offers a safety advantage in terms of renal tolerability over the shorter infusion time of 5 minutes. The lower incidence of renal adverse events with zoledronic acid infused over 15 minutes versus 5 minutes is summarized below. Renal adverse events are defined as increases in a patient's serum creatinine over baseline, by ≦0.5 mg/dL if baseline <1.4 mg/dL, by ≦1 mg/dL if baseline […], by ≦2-fold irrespective of baseline value.

[6] = system: osteoclastic bone resorption; settings: animal models, cited from earlier work
[7] = system: subcutaneous prostate cancer cell line tumours; settings: cited from earlier work
[8] = Study 10, breast cancer patients
[9] = Study 10, multiple myeloma patients
[10] = 4 mg infused over 5 minutes, n = 5
[11] = 4 mg infused over 15 minutes, n = 7
[12] = Study 10, breast cancer and multiple myeloma patients, 5 minutes infusion
[13] = Study 10, breast cancer and multiple myeloma patients, 15 minutes infusion
[14] = Study 11, lung cancer patients, 5 minutes infusion
[15] = Study 11, lung cancer patients, 15 minutes infusion
[16] = Study 39, prostate cancer patients, 5 minutes infusion
[17] = Study 39, prostate cancer patients, 15 minutes infusion

## NCCC(O)(P(=O)(O)O)P(=O)(O)O [pamidronate, disodium pamidronate]
[1]; 90 mg infused over 2 hours
  renal tolerability (incidence of renal adverse events): 8.2%
[2]; [8]
  Percentage of patients showing a skeletal related adverse event: 47%
[2]; [9]
  Percentage of patients showing a skeletal related adverse event: 49%

## O=P(O)(O)C(O)(Cn1ccnc1)P(=O)(O)O [zoledronic acid, 1-hydroxy-2-(imidazol-1-yl)ethane-1,1-diphosphonic acid]
[3]; 4 mg
  Differences in AUC, 15 minutes versus 5 minutes infusion: not significant
  Differences in Ae, 15 minutes versus 5 minutes infusion: not significant
  Differences in mean Cmax, 15 minutes versus 5 minutes infusion: statistically significant
[3]; [10]
  AUC 0-24 h: 378 ± 116 ngxh/ml
  Ae 0-24 h (amount of drug excreted in urine): 38.7 ± 6.34 % of dose
[3]; [11]
  AUC 0-24 h: 420 ± 218 ngxh/ml
  Ae 0-24 h (amount of drug excreted in urine): 37.4 ± 17.0 % of dose
[3]; 4 mg, 4 mg infused over 5 minutes, n = 5, cancer patients with bone metastases
  Cmax: 403 ± 118 ng/mL
[3]; 4 mg, 4 mg infused over 15 minutes, n = 7, cancer patients with bone metastases
  Cmax: 264 ± 86 ng/mL
[1]; 4 mg infused over 15 minutes
  renal safety versus higher doses of zoledronic acid, 8 mg and 16 mg: improved renal safety
[4]
  growth of prostate cancer cell lines: significantly reduced the growth of the cell lines
[5]; 4 mg/15 minutes
  renal safety versus 4 mg/5 minutes and higher zoledronic acid dose/15 minutes: improved renal safety
[5]; [12]
  incidence of renal adverse events: 13.2%
  incidence of renal adverse events (patients with event / patients): 36/272 patients
[5]; [13]
  incidence of renal adverse events: 8.8%
  incidence of renal adverse events (patients with event / patients): 24/272 patients
[5]; Study 10, breast cancer and multiple myeloma patients, 15 minutes infusion, listed as Zoledronic acid
  incidence of renal adverse events: 8.8%
[5]; [14]
  incidence of renal adverse events: 16.4%
  incidence of renal adverse events (patients with event / patients): 10/61 patients
[5]; [15]
  incidence of renal adverse events: 10.9%
  incidence of renal adverse events (patients with event / patients): 18/165 patients
[5]; [16]
  incidence of renal adverse events: 19.8%
  incidence of renal adverse events (patients with event / patients): 22/111 patients
[5]; [17]
  incidence of renal adverse events: 15.2%
  incidence of renal adverse events (patients with event / patients): 14/78 patients
[6]; doses inhibiting bone resorption
  impact on renal function: no appreciable impact on renal function
[6]; doses that do not affect bone formation and mineralization
  inhibition of osteoclastic bone resorption versus earlier generation bisphosphonates: inhibits osteoclastic bone resorption more effectively than earlier generation bisphosphonates
[7]
  tumour volume: no significant decrease in tumour volume
[2]; 4 mg infused over approximately 15 minutes
  efficacy versus Aredia (disodium pamidronate) 90 mg dosed over 2-4 hours: comparable efficacy
[2]; [8]
  Percentage of patients showing a skeletal related adverse event: 42%
[2]; [9]
  Percentage of patients showing a skeletal related adverse event: 47%
[2]; Study 11, hypercalcemic lung cancer patients
  Percentage of patients showing a skeletal related adverse event: 42%
[2]; Study 11, hypercalcemic patients with other solid tumors
  Percentage of patients showing a skeletal related adverse event: 33%
[2]; Study 39, prostate cancer patients
  Percentage of patients showing a skeletal related adverse event: 33%
[2]; double blind, placebo-controlled clinical study, prostate cancer patients
  efficacy over placebo in the treatment of bone metastases: statistically significant efficacy benefit over placebo
